Source: patent US8962608B2, “Cycloalkylnitrile pyrazole carboxamides as janus kinase inhibitors” (Merck Sharp & Dohme Corp., priority 2011, dated 2015)
Where a name gives a salt, the structure may show the parent alone. Read-outs that look alike come from different tables or passages of the source.

Tests used:
[1] = target: T1, JAK2 (recombinant purified GST-tagged catalytic domain) (Homo sapiens (Human), UniProt O60674);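 further: biochemical JAK kinase assay with HTRF detection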
[2] = target: JAK1 (recombinant purified GST-tagged catalytic domain) (Homo sapiens (Human), UniProt P23458);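 further: biochemical assay with HTRF read-out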
[3] = target: T1, JAK2 (recombinant purified GST-tagged catalytic domain); experiment: biochemical

T1 sequence (O60674 849-1124): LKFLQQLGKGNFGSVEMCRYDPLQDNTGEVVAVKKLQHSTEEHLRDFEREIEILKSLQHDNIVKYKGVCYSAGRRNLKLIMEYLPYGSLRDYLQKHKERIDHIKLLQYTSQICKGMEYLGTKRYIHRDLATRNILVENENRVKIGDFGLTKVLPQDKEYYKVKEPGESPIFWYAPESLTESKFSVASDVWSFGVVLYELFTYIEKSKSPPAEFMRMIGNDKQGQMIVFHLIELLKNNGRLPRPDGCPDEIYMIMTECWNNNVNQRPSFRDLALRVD
JAK1 (recombinant purified GST-tagged catalytic domain), sequence (P23458 875-1153): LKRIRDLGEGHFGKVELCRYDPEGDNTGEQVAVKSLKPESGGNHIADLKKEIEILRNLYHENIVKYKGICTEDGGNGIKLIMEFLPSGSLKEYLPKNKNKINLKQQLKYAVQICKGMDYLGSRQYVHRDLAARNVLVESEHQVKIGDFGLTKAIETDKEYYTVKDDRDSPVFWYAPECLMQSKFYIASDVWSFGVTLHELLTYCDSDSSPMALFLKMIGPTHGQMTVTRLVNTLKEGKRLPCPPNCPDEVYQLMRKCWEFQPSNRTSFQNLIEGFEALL

Structure (SMILES) | IC50 [1] | IC50 [2] | IC50 [3]
CN[C@@H]1CC[C@H](C#N)[C@@H](n2cc(C(N)=O)c(Nc3ccc(F)cc3)n2)C1 (mixture of isomers) [Example 6-3, 1-{[(1S,2S,5R) and (1R,2R,5S)]-2-cyano-5-(methylamino)cyclohexyl}-3-[(4-fluorophenyl)amino]-1H-pyrazole-4-carboxamide] | > 1500 nM | 250 nM | 
N#C[C@H]1C[C@@H](NCC(F)F)CC[C@@H]1n1cc(C(N)=O)c(Nc2ccc(S(=O)(=O)C(F)F)cc2)n1 (single isomer, unassigned) [Example 28-126, 1-{(1S,2S,4S or 1R,2R,4R )-2-cyano-4-[(2,2-difluoroethyl)amino]cyclohexyl}-3-({4-[(difluoro-methyl)sulfonyl]phenyl}amino)-1H-pyrazole-4-carboxamide] | 5 nM | 0.5 nM | 
CS(=O)(=O)N[C@@H]1CC[C@H](n2cc(C(N)=O)c(Nc3ccc(F)cc3)n2)[C@@H](C#N)C1 (mixture of isomers) [Example 38-2, 1-{(1S,2S,4R and 1R,2R,4S)-2-cyano-4-[(methylsulfonyl)amino]cyclohexyl}-3-[(4-fluorophenyl)amino]-1H-pyrazole-4-carboxamide] | 12 nM | 0.9 nM | 
CS(=O)(=O)c1ccc(Nc2nn([C@H]3CCC[C@@H]3C#N)cc2C(N)=O)cc1 (mixture of isomers) [Example 1-4, 1-{[(1S,2S) and (1R,2R)-2-cyanocyclopentyl]}-3-{4-(methylsulfonyl)phenyl]amino}-1H-pyrazole-4-carboxamide] | 11 nM | 0.5 nM | 
CN(C)[C@H]1CC[C@H](n2cc(C(N)=O)c(Nc3ccc(S(=O)(=O)C(F)(F)F)cc3)n2)[C@@H](C#N)C1 (mixture of isomers) [Example 27-1, 1-[(1S,3S,4S and 1R,3R,4R)-4-[4-carbamoyl-3-({4-[(trifluoromethyl)sulfonyl]phenyl}amino)-1H-pyrazol-1-yl]-3-cyano-N,N-dimethylcyclohexanaminium trifluoroacetate] |  | 0.2 nM | 
CN[C@H]1CC[C@H](C#N)[C@@H](n2cc(C(N)=O)c(Nc3ccc(F)cc3)n2)C1 (mixture of isomers) [Example 6-5, 1-{[(1S,2S,5S) and (1R,2R,5R)-2-cyano-5-(methylamino)cyclohexyl]-3-[(4-fluorophenyl)amino]-1H-pyrazole-4-carboxamide] | > 1500 nM | 410 nM | 
N#C[C@@H]1CCC2(C[C@@H]1n1cc(C(N)=O)c(Nc3ccccc3)n1)OCCO2 (single isomer, unassigned) [Example 45-4, 1-[(7S,8R or 7R,8S)-8-Cyano-1,4-dioxaspiro[4.5]dec-7-yl]-3-(phenylamino)-1H-pyrazole-4-carboxamide] | 59 nM | 13 nM | 
COCC(C)N(C)[C@H]1CCC(n2cc(C(N)=O)c(Nc3ccc(Cl)cc3)n2)[C@@H](C#N)C1 (single isomer, unassigned) [Example 28-241, 3-[(4-chlorophenyl)amino]-1-[(1R,2S,4S1S,2S,4S or 1R,2R,4R)-2-cyano-4-{[(1S or 1R)-2-methoxy-1-methylethyl](methyl)ami-no}cyclohexyl]-1H-pyrazole-4-carboxamide] |  | 2 nM | 28 nM
CC1(N[C@H]2CCC(n3cc(C(N)=O)c(Nc4ccc(Cl)cc4)n3)[C@@H](C#N)C2)CC1 (single isomer, unassigned) [Example 28-205, 3-[(4-chlorophenyl)amino]-1-{(1S,2S,4S or 1R,2R,4R,)-2-cyano-4-[(1-methylcyclopropyl)amino]cyclo-hexyl}-1H-pyrazole-4-carboxamide] |  | 0.9 nM | 
CS(=O)(=O)c1ccc(Nc2nn([C@H]3CCCC[C@@H]3C#N)cc2C(N)=O)cc1 (single isomer, unassigned) [Example 42-2, 1-[(1S,2S or 1R,2R)-2-cyanocyclohexyl]-3-{[4-(methylsulfonyl)phenyl]amino}-1H-pyrazole-4-carboxamide] | 27 nM |  | 
N#C[C@@H]1CCCC[C@@H]1n1cc(C(N)=O)c(Nc2ccc(CC(=O)O)cc2)n1 (mixture of isomers) [Example 3-1, [4-({4-carbamoyl-1-[(1S,2R and 1R,2S)-2-cyanocyclohexyl]-1H-pyrazol-3-yl}amino)phenyl]acetic acid] | 109 nM |  | 
N#C[C@H]1C[C@H](O)CC[C@@H]1n1cc(C(N)=O)c(Nc2ccc(C(F)(F)F)cc2)n1 (single isomer, unassigned) [Example 25-24, 1-[(1S,2S,4R or 1R,2R,4S)-2-cyano-4-hydroxycyclohexyl]-3-{[4-(trifluoromethyl)phenyl]amino}-1H-pyrazole-4-carboxamide] |  | 1 nM | 8 nM
CN(C)[C@@H]1CC[C@H](n2cc(C(N)=O)c(Nc3ccc(S(=O)(=O)C(F)(F)F)cc3)n2)[C@@H](C#N)C1 (mixture of isomers) [Example 27-2, 1-[(1R,3S,4S and 1S,3R,4R)-4-[4-carbamoyl-3-({4-[(trifluoromethyl)sulfonyl]phenyl}amino)-1H-pyrazol-1-yl]-3-cyano-N,N-dimethylcyclohexanaminium trifluoroacetate] |  | 0.5 nM | 
CS(=O)(=O)c1ccc(Nc2nn(C3CCCCC3C#N)cc2C(N)=O)cc1 (centres unmarked) [Example 2-15, 1-(2-cyanocyclohexyl)-3-{[4-(methylsulfonyl)phenyl]amino}-1H-pyrazole-4-carboxamide] | 9 nM |  | 

Second part, led by results:

IC50 [1] | IC50 [2] | Structure (SMILES) | IC50 [3]
85 nM |  | CS(=O)(=O)c1ccc(Nc2nn([C@H]3CCCC[C@H]3C#N)cc2C(N)=O)cc1 (single isomer, unassigned) [Example 42-3, 1-[(1S,2R or 1R,2S)-2-cyanocyclohexyl]-3-{[4-(methylsulfonyl)phenyl]amino}-1H-pyrazole-4-carboxamide] | 
38 nM | 7 nM | CC1CCC(C#N)C(n2cc(C(N)=O)c(Nc3ccccc3)n2)C1 (centres unmarked) [Example 11-6, 1-(2-cyano-5-methylcyclohexyl)-3-(phenylamino)-1H-pyrazole-4-carboxamide] | 
14 nM | 2 nM | CS(=O)(=O)N[C@H]1CC[C@H](n2cc(C(N)=O)c(Nc3ccc(F)cc3)n2)[C@@H](C#N)C1 (mixture of isomers) [Example 38-1, 1-{(1S,2S,4S and 1R,2R,4R)-2-cyano-4-[(methylsulfonyl)amino]cyclohexyl}-3-[(4-fluorophenyl)amino]-1H-pyrazole-4-carboxamide] | 
434 nM | 21 nM | CC(C)(C)OC(=O)NCC1CC[C@H](C#N)[C@@H](n2cc(C(N)=O)c(Nc3ccc(F)cc3)n2)C1 (single isomer, unassigned) [Example 11-9, tert-butyl {[(1R or S 3S,4S) and (1S or R, 3R, 4R)]-3-{4-carbamoyl-3-[(4-fluorophenyl)amino]-1H-pyrazol-1-yl}-4-cyanocyclohexyl]methyl}carbamate] | 
8 nM | 3 nM | C[C@]1(C#N)CC[C@@H](F)C[C@@H]1n1cc(C(N)=O)c(Nc2ccc(F)cc2)n1 (mixture of isomers) [Example 19-1, 1-((1S,2S,5R and 1R,2R,5S)-2-cyano-5-fluoro-2-methylcyclohexyl)-3-((4-fluorophenyl)amino)-1H-pyrazole-4-carboxamide] | 
 | 23 nM | CC(C)(C)OC(=O)C1CCC(n2cc(C(N)=O)c(Nc3ccc(S(=O)(=O)C(F)(F)F)cc3)n2)C(C#N)C1 (centres unmarked) [Example 17-2, tert-butyl 4-[4-carbamoyl-3-({4-[(trifluoromethyl)sulfonyl]phenyl}amino)-1H-pyrazol-1-yl]-3-cyanocyclohexanecarboxylate] | 
> 1500 nM | 158 nM | CC(C)(C)OC(=O)NCC1CC[C@@H](C#N)[C@@H](n2cc(C(N)=O)c(Nc3ccc(F)cc3)n2)C1 (mixture of isomers) [Example 11-8, tert-butyl {[(3S,4R) and (3R,4S)]-3-{4-carbamoyl-3-[(4-fluorophenyl)amino]-1H-pyrazol-1-yl}-4-cyanocyclohexyl]methyl}carbamate] | 
 | 0.85 nM | N#C[C@H]1C[C@@H]([N+]2(CC3CC3)CCC2)CC[C@@H]1n1cc(C(N)=O)c(Nc2ccc(Cl)cc2)n1 [Example 31-5, 1-[(1S,3S,4S)-4-{4-carbamoyl-3-[(4-chlorophenyl)amino]-1H-pyrazol-1-yl}-3-cyanocyclohexyl]-1-(cyclopropylmethyl)azetidinium] | 
47 nM | 9 nM | N#CC1CCC2(CC1n1cc(C(N)=O)c(Nc3ccccc3)n1)OCCO2 (centres unmarked) [Example 2-3, 1-(8-cyano-1,4-dioxaspiro[4.5]dec-7-yl)-3-(phenylamino)-1H-pyrazole-4-carboxamide] | 
7 nM |  | CS(=O)(=O)c1ccc(Nc2nn([C@H]3CCCC[C@H]3C#N)cc2C(N)=O)cc1 (single isomer, unassigned) [Example 42-4, 1-[(1S,2R or 1R,2S)-2-cyanocyclohexyl]-3-{[4-(methylsulfonyl)phenyl]amino}-1H-pyrazole-4-carboxamide] | 
 | 16 nM | Cc1cncc(Nc2nn([C@H]3CCCC[C@@H]3C#N)cc2C(N)=O)c1 [Example 17-73, 1-[(1S,2S)-2-cyanocyclohexyl]-3-[(5-methylpyridin-3-yl)amino]-1H-pyrazole-4-carboxamide] | 
 | 1 nM | C[N+]1([C@H]2CC[C@H](n3cc(C(N)=O)c(Nc4ccc(Cl)cc4)n3)[C@@H](C#N)C2)CCC1 [Example 31-2, 1-[(1S,3S,4S)-4-{4-carbamoyl-3-[(4-chlorophenyl)amino]-1H-pyrazol-1-yl}-3-cyanocyclohexyl]-1-methylazetidinium] | 
 | 1 nM | CC1(C)CN([C@H]2CC[C@H](n3cc(C(N)=O)c(Nc4ccnc(F)c4)n3)[C@@H](C#N)C2)C1 (single isomer, unassigned) [Example 28-134, 1-[(1S,2S,4S or 1R,2R,4R )-2-cyano-4-(3,3-dimethylazetidin-1-yl)cyclohexyl]-3-[(2-fluoropyridin-4-yl)amino]-1H-pyrazole-4-carboxamide] | 
